Laboratory results as given in patent US9113629B2, “4-amino-6-(4-substituted-phenyl)-picolinates and 6-amino-2-(4-substituted-phenyl)-pyrimidine-4-carboxylates and their use as herbicides” (DOW AGROSCIENCES LLC, priority 2013, dated 2015).

Tests used:
[1] = test system: VERPE: bird's-eye speedwell (veronica persica); test: Post-emergent Test III, herbicidal activity in wheat and barley; assay type: in vivo
In short: (§1)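 Plants at the second to third true-leaf stage, grown in a greenhouse at about 18/17 °C with a 14 h photoperiod, were sprayed post-emergence at 187 L/ha with the high rate and ½× to 1/16× serial dilutions in an acetone/DMSO/crop-oil/surfactant carrier. Injury was rated visually at 21 d on a 0–100% scale, and GR20–GR90 were derived by probit analysis.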

[2] = test system: APESV: bentgrass (Apera spica-venti); test: as above; assay type: in vivo
In short: as §1

[3] = test system: MATSS: scented mayweed (Matricaria chamomilla), pineappleweed (Matricaria matricarioides); test: as above; assay type: in vivo
In short: as §1

[4] = test system: LOLSS: ryegrass including, Italian ryegrass (Lolium multiflorum), rigid ryegrass (Lolium rigidum), annual ryegrass (Lolium multiflorum subsp. Gaudini); test: as above; assay type: in vivo; conditions: probit analysis, 21 days after application
In short: as §1

[5] = as above; assay type: in vivo, Lolium multiflorum, Lolium rigidum; conditions: Lolium multiflorum, post-emergence, 504 h, read-out: Visual Growth Reduction (%) 21 Days After Application LOLSS
In short: as §1

[6] = test system: SETVI: green foxtail (Setaria viridis); test: as above; assay type: in vivo
In short: as §1

[7] = test system: HORSS: barley, including spring and winter (Hordeum vulgare); test: as above; assay type: in vivo
In short: as §1

[8] = test system: KCHSC: kochia (Kochia scoparia); test: as above; assay type: in vivo
In short: as §1

[9] = test system: BROTE: downy brome (Bromus tectorum); test: as above; assay type: in vivo
In short: as §1

[10] = test system: TRZSS: wheat, including spring and winter (Triticum aestivum); test: as above; assay type: in vivo
In short: as §1

[11] = probit analysis, dose for growth reduction of 50 percent, 21 days after application
[12] = probit analysis, dose for growth reduction of 80 percent, 21 days after application
[13] = probit analysis, dose for growth reduction of 20 percent, 21 days after application, crop

## COC(=O)c1nc(-c2ccc(Cl)c(F)c2)c(F)c(N)c1Cl [Compound 216]
[1]; Veronica persica, post-emergence, 504 h, 35 g ai/ha, read-out: Visual Growth Reduction (%) 21 Days After Application VERPE
  pest or weed control at 35 g/ha: 45 to 59%
[1]; Veronica persica, post-emergence, 504 h, 70 g ai/ha, read-out: Visual Growth Reduction (%) 21 Days After Application VERPE
  pest or weed control at 70 g/ha: 60 to 74%
[1]; Veronica persica, post-emergence, 504 h, 140 g ai/ha, read-out: Visual Growth Reduction (%) 21 Days After Application VERPE
  pest or weed control at 140 g/ha: 75 to 84%
[1]; [11]
  GR50 VERPE: 32 g ai/ha
[1]; [12]
  GR80 VERPE: >140 g ai/ha
[2]; Apera spica-venti, post-emergence, 504 h, 35 g ai/ha, read-out: Visual Growth Reduction (%) 21 Days After Application APESV
  pest or weed control at 35 g/ha: 85 to 94%
[2]; Apera spica-venti, post-emergence, 504 h, 70 g ai/ha, read-out: Visual Growth Reduction (%) 21 Days After Application APESV
  pest or weed control at 70 g/ha: 85 to 94%
[2]; Apera spica-venti, post-emergence, 504 h, 140 g ai/ha, read-out: Visual Growth Reduction (%) 21 Days After Application APESV
  pest or weed control at 140 g/ha: 95 to 100%
[2]; [11]
  GR50 APESV: 6 g ai/ha
[2]; [12]
  GR80 APESV: 20 g ai/ha
[3]; Matricaria chamomilla, post-emergence, 504 h, 35 g ai/ha, read-out: Visual Growth Reduction (%) 21 Days After Application MATSS
  pest or weed control at 35 g/ha: 75 to 84%
[3]; Matricaria chamomilla, post-emergence, 504 h, 70 g ai/ha, read-out: Visual Growth Reduction (%) 21 Days After Application MATSS
  pest or weed control at 70 g/ha: 75 to 84%
[3]; Matricaria chamomilla, post-emergence, 504 h, 140 g ai/ha, read-out: Visual Growth Reduction (%) 21 Days After Application MATSS
  pest or weed control at 140 g/ha: 85 to 94%
[3]; [11]
  GR50 MATSS: 10 g ai/ha
[3]; [12]
  GR80 MATSS: 62 g ai/ha
[4]; dose for growth reduction of 50 percent
  GR50 LOLSS: 137 g ai/ha
[4]; dose for growth reduction of 80 percent
  GR80 LOLSS: >140 g ai/ha
[5]; 35 g ai/ha
  pest or weed control at 35 g/ha: 0 to 29%
[5]; 70 g ai/ha
  pest or weed control at 70 g/ha: 30 to 44%
[5]; 140 g ai/ha
  pest or weed control at 140 g/ha: 45 to 59%
[6]; Setaria viridis, post-emergence, 504 h, 35 g ai/ha, read-out: Visual Growth Reduction (%) 21 Days After Application SETVI
  pest or weed control at 35 g/ha: 60 to 74%
[6]; Setaria viridis, post-emergence, 504 h, 70 g ai/ha, read-out: Visual Growth Reduction (%) 21 Days After Application SETVI
  pest or weed control at 70 g/ha: 75 to 84%
[6]; Setaria viridis, post-emergence, 504 h, 140 g ai/ha, read-out: Visual Growth Reduction (%) 21 Days After Application SETVI
  pest or weed control at 140 g/ha: 85 to 94%
[6]; [11]
  GR50 SETVI: 20 g ai/ha
[6]; [12]
  GR80 SETVI: 64 g ai/ha
[7]; Hordeum vulgare, post-emergence, 504 h, 35 g ai/ha, read-out: Visual Growth Reduction (%) 21 Days After Application HORSS
  pest or weed control at 35 g/ha: 85 to 94%
[7]; Hordeum vulgare, post-emergence, 504 h, 70 g ai/ha, read-out: Visual Growth Reduction (%) 21 Days After Application HORSS
  pest or weed control at 70 g/ha: 85 to 94%
[7]; Hordeum vulgare, post-emergence, 504 h, 140 g ai/ha, read-out: Visual Growth Reduction (%) 21 Days After Application HORSS
  pest or weed control at 140 g/ha: 85 to 94%
[7]; [13]
  GR20 HORSS: 1 g ai/ha
[8]; Bassia scoparia, post-emergence, 504 h, 35 g ai/ha, read-out: Visual Growth Reduction (%) 21 Days After Application KCHSC
  pest or weed control at 35 g/ha: 95 to 100%
[8]; Bassia scoparia, post-emergence, 504 h, 70 g ai/ha, read-out: Visual Growth Reduction (%) 21 Days After Application KCHSC
  pest or weed control at 70 g/ha: 95 to 100%
[8]; Bassia scoparia, post-emergence, 504 h, 140 g ai/ha, read-out: Visual Growth Reduction (%) 21 Days After Application KCHSC
  pest or weed control at 140 g/ha: 95 to 100%
[8]; [11]
  GR50 KCHSC: 1 g ai/ha
[8]; [12]
  GR80 KCHSC: 2 g ai/ha
[9]; Bromus tectorum, post-emergence, 504 h, 35 g ai/ha, read-out: Visual Growth Reduction (%) 21 Days After Application BROTE
  pest or weed control at 35 g/ha: 30 to 44%
[9]; Bromus tectorum, post-emergence, 504 h, 70 g ai/ha, read-out: Visual Growth Reduction (%) 21 Days After Application BROTE
  pest or weed control at 70 g/ha: 45 to 59%
[9]; Bromus tectorum, post-emergence, 504 h, 140 g ai/ha, read-out: Visual Growth Reduction (%) 21 Days After Application BROTE
  pest or weed control at 140 g/ha: 45 to 59%
[9]; [11]
  GR50 BROTE: 136 g ai/ha
[9]; [12]
  GR80 BROTE: >140 g ai/ha
[10]; Triticum aestivum, post-emergence, 504 h, 35 g ai/ha, read-out: Visual Growth Reduction (%) 21 Days After Application TRZSS
  pest or weed control at 35 g/ha: 75 to 84%
[10]; Triticum aestivum, post-emergence, 504 h, 70 g ai/ha, read-out: Visual Growth Reduction (%) 21 Days After Application TRZSS
  pest or weed control at 70 g/ha: 85 to 94%
[10]; Triticum aestivum, post-emergence, 504 h, 140 g ai/ha, read-out: Visual Growth Reduction (%) 21 Days After Application TRZSS
  pest or weed control at 140 g/ha: 85 to 94%
[10]; [13]
  GR20 TRZSS: 1 g ai/ha
